43 molecules from patent US8778929B2, “Substituted heteroaryl inhibitors of B-RAF” (Boehringer Ingelheim International GmbH, priority 2008, dated 2014) can be followed below.

Sequence of B-Raf (V600E)-kinase (P15056 whole entry V600E): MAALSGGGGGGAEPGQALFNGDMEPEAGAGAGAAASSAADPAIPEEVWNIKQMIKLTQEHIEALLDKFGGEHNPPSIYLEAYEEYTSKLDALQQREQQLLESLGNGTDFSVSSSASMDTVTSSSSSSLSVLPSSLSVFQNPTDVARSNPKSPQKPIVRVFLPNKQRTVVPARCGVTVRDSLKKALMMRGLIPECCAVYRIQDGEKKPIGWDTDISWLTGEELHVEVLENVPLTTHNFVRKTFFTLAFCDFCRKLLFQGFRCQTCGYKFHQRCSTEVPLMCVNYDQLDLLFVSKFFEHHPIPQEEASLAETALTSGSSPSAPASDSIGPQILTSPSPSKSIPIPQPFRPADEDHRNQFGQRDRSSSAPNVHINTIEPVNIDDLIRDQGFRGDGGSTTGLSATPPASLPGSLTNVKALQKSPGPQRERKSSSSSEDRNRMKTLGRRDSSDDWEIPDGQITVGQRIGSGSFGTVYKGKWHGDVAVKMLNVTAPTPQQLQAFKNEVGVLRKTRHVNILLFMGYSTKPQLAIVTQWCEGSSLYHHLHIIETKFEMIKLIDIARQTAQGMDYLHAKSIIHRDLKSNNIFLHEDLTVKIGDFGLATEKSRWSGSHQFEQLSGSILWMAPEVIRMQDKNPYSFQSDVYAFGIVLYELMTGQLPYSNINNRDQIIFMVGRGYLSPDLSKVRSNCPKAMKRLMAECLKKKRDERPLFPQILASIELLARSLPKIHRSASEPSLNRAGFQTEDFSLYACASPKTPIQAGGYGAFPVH

The first assay concerns the target B-Raf (V600E)-kinase (Homo sapiens, UniProt P15056, V600E). Kind of assay: Kinase test B-Raf (V600E). Type of assay: biochemical. The note with it: compound concentration 2 μM; 100% = no inhibition, 0% = total inhibition; read-out: % CTL (residual activity of the enzyme relative to DMSO control). As to the method: In a dilution series 10 μL of test substance solution are placed in a multiwell plate. The dilution series is selected so that generally a range of concentrations of 2 μM to 0.119 nM or 0.017 nM is covered. If necessary the initial concentration of 2 μM is changed to 50 μM, 10 μM or 0.4 μM or 0.2857 μM and further dilution is carried out accordingly. The final concentration of DMSO is 5%. 10 μL of the B-Raf (V600E)-kinase solution are pipetted in (containing 0.5 ng B-Raf (V600E)-kinase in 20 mM Tris-HCl pH 7.5, 0.1 mM EDTA, 0.1 mM EGTA, 0.286 mM sodium orthovanadate, 10% glycerol, 1 mg/mL bovine serum albumin, 1 mM dithiothreitol) and the mixture is incubated for 1 h at RT under with shaking The kinase reaction is started by the addition of 20 μL ATP solution [final concentration: 250 μM ATP, 30 mM Tris-HCl pH 7.5, 0.02% Brij, 0.2 mM sodium orthovanadate, 10 mM magnesium acetate, 0.1 mM EGTA, phosphatase cocktail (Sigma, # P2850, dilution recommended by the manufacturer), 0.1 mM EGTA] and 10 μL MEK1 solution [containing 50 ng biotinylated MEK1 (prepared from purified MEK1 according to standard procedure, e.g. with EZ-Link Sulpho-NHS-LC-Biotin reagent, Pierce, # 21335) and carried out for 60 min at RT with constant shaking. The reaction is stopped by the addition of 12 μL of a 100 mM EDTA solution and incubation is continued for a further 5 min. 55 μL of the reaction solution are transferred into a streptavidin-coated plate (e.g. Streptawell HighBond, Roche, #11989685001) and shaken gently for 1 h at RT, in order to bind biotinylated MEK1 to the plate. After elimination of the liquid the plate is washed five times with 200 μL of 1×PBS and 100 μL solution of primary antibody plus europium-labelled secondary antibody [Anti Phospho-MEK (Ser217/221), Cell Signaling, # 9121 and Eu-N1 labeled goat-anti-rabbit antibody, Perkin Elmer, #AD0105], the primary antibody is diluted 1:2000 and the secondary antibody is diluted to 0.4-0.5 μg/mL in Delfia Assay Buffer (Perkin Elmer, #1244-111). After 1 h shaking at RT the solution is poured away and washed five times with 200 μL Delfia Wash Buffer (Perkin Elmer, #4010-0010/#1244-114). After the addition of 200 μL Enhancement Solution (Perkin Elmer, #4001-0010/#1244-105) the mixture is shaken for 10 min at RT and then measured in a Wallac Victor using the program “Delfia Time Resolved Fluorescence (Europium)”. IC50 values are obtained from these dosage-activity curves using a software program (GraphPadPrizm).
A value of 100% indicates no inhibition while a value of 0% indicates total inhibition. The % CTL values denote the residual activity of the enzyme after the addition of the inhibitory compound in the solvent DMSO in relation to the enzyme activity in the solvent DMSO without the addition of a compound (control). The values were determined using the B-Raf(V600E)-kinase test described above.
In the case of `Cc1ncc(C(=O)Nc2cc(C(C)(C)C)on2)cc1-n1cc(-c2cnn(C)c2C)nn1` [Example I-1], the remaining activity at 2 µM amounted to 7.6%.

`Cc1ncc(C(=O)Nc2cc(C(F)(F)F)ccn2)cc1-n1cc(-c2cnn(C)c2C)nn1` [Example I-2]: the remaining activity at 2 µM is 8%.

On to `Cc1ncc(C(=O)Nc2cc(N3CCN(C)CC3)cc(C(F)(F)F)c2)cc1-n1cc(-c2cnn(C)c2C)nn1` [Example I-3], for which the remaining activity at 2 µM worked out at 8.7%.

In the case of `Cc1ncc(C(=O)Nc2cc(C(C)(C)C)nn2C)cc1-n1cc(-c2cnn(C)c2C)nn1` [Example I-4], the remaining activity at 2 µM came out at 1.7%.

For `Cc1ncc(C(=O)Nc2cc(N3CCN(C)CC3)c(C)c(C(F)(F)F)c2)cc1-n1cc(-c2cnn(C)c2C)nn1` [Example I-6], the remaining activity at 2 µM is 2.1%.

In the case of `COc1ccc(NC(=O)c2cnc(C)c(-n3cc(-c4cnn(C)c4C)nn3)c2)cc1C(F)(F)F` [Example I-7], the remaining activity at 2 µM came to 2%.

Take `Cc1ccc(C(F)(F)F)cc1NC(=O)c1cnc(C)c(-n2cc(-c3cnn(C)c3C)nn2)c1` [Example I-8]: the remaining activity at 2 µM is 1.6%.

In the case of `COc1c(NC(=O)c2cnc(C)c(-n3cc(-c4cnn(C)c4C)nn3)c2)cc(C(C)(C)C)cc1NS(C)(=O)=O` [Example I-9], the remaining activity at 2 µM was 1.4%.

In the case of `Cc1ncc(C(=O)Nc2cc(N3CCN(C)CC3)c(F)c(C(F)(F)F)c2)cc1-n1cc(-c2cnn(C)c2C)nn1` [Example I-10], the remaining activity at 2 µM came to 1.1%.

Consider `Cc1ncc(C(=O)Nc2cc(CN3CCCC3)cc(C(F)(F)F)c2)cc1-n1cc(-c2cnn(C)c2C)nn1` [Example I-12], for which the remaining activity at 2 µM came out at 1.8%.

As for `COc1c(CNC(C)C)cc(C(F)(F)F)cc1NC(=O)c1cnc(C)c(-n2cc(-c3cnn(C)c3C)nn2)c1` [Example I-13], the remaining activity at 2 µM was determined as 2.3%.

Consider `CC(=O)Nc1ncc(-c2cn(-c3cc(C(=O)Nc4cc(C(F)(F)F)ccn4)cnc3C)nn2)s1` [Example I-14], for which the remaining activity at 2 µM is 1.4%.

Turning to `CC(=O)Nc1ncc(-c2cn(-c3cc(C(=O)Nc4cc(CN5CCCC5)cc(C(F)(F)F)c4)cnc3C)nn2)s1` [Example I-15], the remaining activity at 2 µM is 1.4%.

With `Cc1ncc(C(=O)Nc2cc(N3CCN(C)CC3)cc(C(F)(F)F)c2)cc1-n1cc(-c2cncnc2)nn1` [Example I-18], the remaining activity at 2 µM is 2.4%.

As for `CCN1CCN(c2cc(NC(=O)c3cnc(C)c(-n4cc(-c5cncnc5)nn4)c3)cc(C(F)(F)F)c2C)CC1` [Example I-20], the remaining activity at 2 µM turned out to be 1.9%.

`Cc1ncc(C(=O)Nc2cc(C(C)(C)C)on2)cc1-n1cc(-c2cncnc2)nn1` [Example I-21]: the remaining activity at 2 µM amounted to 2.2%.

Consider `Cc1ncc(C(=O)Nc2cc(C(F)(F)F)ccn2)cc1-n1cc(-c2cncnc2)nn1` [Example I-23], for which the remaining activity at 2 µM came to 5.9%.

With `COc1cncc(-c2cn(-c3cc(C(=O)Nc4cc(N5CCN(C)CC5)cc(C(F)(F)F)c4)cnc3C)nn2)c1` [Example I-24], the remaining activity at 2 µM turned out to be 1%.

Take `COc1cncc(-c2cn(-c3cc(C(=O)Nc4cc(N5CCN(C)CC5)c(F)c(C(F)(F)F)c4)cnc3C)nn2)c1` [Example I-25]: the remaining activity at 2 µM came to 2.2%.

For the molecule `CCN1CCN(c2cc(NC(=O)c3cnc(C)c(-n4cc(-c5cncc(OC)c5)nn4)c3)cc(C(F)(F)F)c2C)CC1` [Example I-26], the remaining activity at 2 µM stood at 1.4%.

In the case of `COc1cncc(-c2cn(-c3cc(C(=O)Nc4cc(C(C)(C)C)on4)cnc3C)nn2)c1` [Example I-27], the remaining activity at 2 µM was determined as 3.3%.

For the molecule `COc1cncc(-c2cn(-c3cc(C(=O)Nc4cc(C(F)(F)F)ccn4)cnc3C)nn2)c1` [Example I-29], the remaining activity at 2 µM amounted to 2.5%.

Consider `Cc1cn2c(-c3cn(-c4cc(C(=O)Nc5cc(C(C)(C)C)nn5C)cnc4C)nn3)cnc2cn1` [Example I-30], for which the remaining activity at 2 µM came out at 6.9%.

In the case of `Cc1cn2c(-c3cn(-c4cc(C(=O)Nc5cc(C(F)(F)F)ccn5)cnc4C)nn3)cnc2cn1` [Example I-32], the remaining activity at 2 µM worked out at 1.5%.

As to `COc1ccc(NC(=O)c2cnc(C)c(-n3cc(-c4cnc5cnc(C)cn45)nn3)c2)cc1C(F)(F)F` [Example I-33], the remaining activity at 2 µM turned out to be 1.4%.

For the molecule `Cc1ncc(C(=O)Nc2cc(C(C)(C)C)on2)cc1-n1cc(-c2cncc(Br)c2)nn1` [Example I-34], the remaining activity at 2 µM amounted to 1.5%.

As to `Cc1ncc(C(=O)Nc2cc(C(C)(C)C)on2)cc1-n1cc(-c2cncc(N3CCOCC3)c2)nn1` [Example I-35], the remaining activity at 2 µM came to 1.7%.

For the molecule `Cc1ncc(C(=O)Nc2cc(C(C)(C)C)on2)cc1-n1cc(-c2cncc(N3CCCOCC3)c2)nn1` [Example I-36], the remaining activity at 2 µM amounted to 1.8%.

Consider `Cc1ncc(C(=O)Nc2cc(C(C)(C)C)on2)cc1-n1cc(-c2cncc(NC3CCOC3)c2)nn1` (stereo not shown) [Example I-37], for which the remaining activity at 2 µM was 2.5%.

`Cc1ncc(C(=O)Nc2cc(C(C)(C)C)on2)cc1-n1cc(-c2cncc(N(C)C3CCOC3)c2)nn1` (stereo not shown) [Example I-38]: the remaining activity at 2 µM turned out to be 2.4%.

As for `Cc1ncc(C(=O)Nc2cc(C(C)(C)C)on2)cc1-n1cc(-c2cncc(N3CCN(C)CC3)c2)nn1` [Example I-39], the remaining activity at 2 µM stood at 1.5%.

Consider `Cc1ncc(C(=O)Nc2cc(C(C)(C)C)on2)cc1-n1cc(-c2cncc(NC3CCOCC3)c2)nn1` [Example I-40], for which the remaining activity at 2 µM is 1.4%.

For the molecule `COCCNc1cncc(-c2cn(-c3cc(C(=O)Nc4cc(C(C)(C)C)on4)cnc3C)nn2)c1` [Example I-41], the remaining activity at 2 µM is 1.1%.

On to `Cc1ncc(C(=O)Nc2cc(C(C)(C)C)no2)cc1-n1cc(-c2cnn(C)c2C)nn1` [Example I-42], for which the remaining activity at 2 µM amounted to 1.6%.

In the case of `CCN1CCN(c2cc(NC(=O)c3cnc(C)c(-n4cc(-c5cncs5)nn4)c3)cc(C(F)(F)F)c2C)CC1` [Example I-43], the remaining activity at 2 µM was 1.1%.

Regarding `Cc1cn2c(-c3cn(-c4cc(C(=O)Nc5cc(N6CCN(C)CC6)c(C)c(C(F)(F)F)c5)cnc4C)nn3)cnc2cn1` [Example I-44], the remaining activity at 2 µM was determined as 3.3%.

`Cc1cn2c(-c3cn(-c4cc(C(=O)Nc5cc(N6CCN(C)CC6)cc(C(F)(F)F)c5)cnc4C)nn3)cnc2cn1` [Example I-45]: the remaining activity at 2 µM turned out to be 3.2%.

Turning to `CCN1CCN(c2cc(NC(=O)c3cnc(C)c(-n4cc(-c5cccnc5)nn4)c3)cc(C(F)(F)F)c2C)CC1` [Example I-46], the remaining activity at 2 µM is 6.1%.

Regarding `CCN1CCN(c2cc(NC(=O)c3cnc(C)c(-n4cc(-c5ccc(NC(C)=O)nc5)nn4)c3)cc(C(F)(F)F)c2C)CC1` [Example I-47], the remaining activity at 2 µM turned out to be 2%.

As for `CCN1CCN(c2cc(NC(=O)c3cnc(C)c(-n4cc(-c5cnc(NC(C)=O)s5)nn4)c3)cc(C(F)(F)F)c2C)CC1` [Example I-48], the remaining activity at 2 µM is 1.7%.

`CCN1CCN(c2cc(NC(=O)c3cnc(C)c(-n4cc(-c5cncc(C#N)c5)nn4)c3)cc(C(F)(F)F)c2C)CC1` [Example I-49]: the remaining activity at 2 µM was found to be 6.2%.

Turning to `COc1c(CNC(C)C)cc(NC(=O)c2cnc(C)c(-n3cc(-c4cnc5cnc(C)cn45)nn3)c2)cc1C(F)(F)F` [Example I-50], the remaining activity at 2 µM came to 2.2%.

The same assay, now with this note: measurement at 0.29 μM (*); 100% = no inhibition, 0% = total inhibition; read-out: % CTL (residual activity of the enzyme relative to DMSO control).
Regarding `CC(=O)Nc1ncc(-c2cn(-c3cc(C(=O)Nc4cc(N5CCN(C)CC5)cc(C(F)(F)F)c4)cnc3C)nn2)s1` [Example I-16], the remaining activity at 0.29 µM came to 2%.
